Where “and” joins values, the source holds several entries; their conditions need not be identical. Equal values may be shown once. Inconclusive results and toxic doses are left out.
Tested on: BDF1 mice, P388 leukemia ip, median survival T/C
Assay: NCI In Vivo Anticancer Drug Screen. Data for tumor model P388 Leukemia (intraperitoneal) in B6D2F1 (BDF1) mice
Conditions: endpoint: median survival time, higher = longer survival
Method in brief: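 Compound-treated tumour-bearing mice were compared with vehicle-treated controls. Survival was recorded, and the value is the treated-group measurement divided by the control-group measurement (T/C).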

[1] = dose: 50.0 mg/kg/injection, schedule: Q01DX009 (ip), vehicle: saline with Tween-80
[2] = dose: 100.0 mg/kg/injection, schedule: Q01DX009 (ip), vehicle: saline with Tween-80
[3] = dose: 200.0 mg/kg/injection, schedule: Q01DX009 (ip), vehicle: saline with Tween-80
[4] = dose: 100.0 mg/kg/injection, schedule: Q04DX003 (ip), vehicle: saline
[5] = dose: 200.0 mg/kg/injection, schedule: Q04DX003 (ip), vehicle: saline
[6] = dose: 400.0 mg/kg/injection, schedule: Q04DX003 (ip), vehicle: saline
[7] = dose: 100.0 mg/kg/injection, schedule: Q01DX009 (ip), vehicle: saline
[8] = dose: 200.0 mg/kg/injection, schedule: Q01DX009 (ip), vehicle: saline
[9] = dose: 12.5 mg/kg/injection, schedule: Q01DX009 (ip), vehicle: Klucel (hydroxypropylcellulose) (HPC)
[10] = dose: 25.0 mg/kg/injection, schedule: Q01DX009 (ip), vehicle: Klucel (hydroxypropylcellulose) (HPC)
[11] = dose: 25.0 mg/kg/injection, schedule: Q01DX009 (ip), vehicle: saline with Tween-80
[12] = dose: 25.0 mg/kg/injection, schedule: Q04DX003 (ip), vehicle: saline
[13] = dose: 100.0 mg/kg/injection, schedule: Q04DX003 (ip), vehicle: saline with Tween-80
[14] = dose: 200.0 mg/kg/injection, schedule: Q04DX003 (ip), vehicle: saline with Tween-80
[15] = dose: 400.0 mg/kg/injection, schedule: Q04DX003 (ip), vehicle: saline with Tween-80
[16] = dose: 50.0 mg/kg/injection, schedule: Q01DX009 (ip), vehicle: saline
[17] = dose: 100.0 mg/kg/injection, schedule: Q04DX003 (ip), vehicle: Klucel (hydroxypropylcellulose) (HPC)
[18] = dose: 200.0 mg/kg/injection, schedule: Q04DX003 (ip), vehicle: Klucel (hydroxypropylcellulose) (HPC)
[19] = dose: 400.0 mg/kg/injection, schedule: Q04DX003 (ip), vehicle: Klucel (hydroxypropylcellulose) (HPC)
[20] = dose: 100.0 mg/kg/injection, schedule: Q04DX003 (ip), vehicle: saline sonified
[21] = dose: 200.0 mg/kg/injection, schedule: Q04DX003 (ip), vehicle: saline sonified

## CC1CC(C)(O)CC(C(O)CC2CC(=O)NC(=O)C2)C1=O (stereo not given)
dose: 0.4 mg/kg/injection, schedule: Q01DX010 (ip), vehicle: saline
  T/C: 181 % of control
dose: 0.5 mg/kg/injection, schedule: Q04DX003 (ip), vehicle: saline
  T/C: 111 % of control
dose: 0.8 mg/kg/injection, schedule: Q01DX010 (ip), vehicle: saline
  T/C: 90 % of control
dose: 1.2 mg/kg/injection, schedule: Q04DX003 (ip), vehicle: saline
  T/C: 123 % of control
dose: 1.3 mg/kg/injection, schedule: Q01DX001 (sc), vehicle: saline
  T/C: 118 % of control
dose: 2.0 mg/kg/injection, schedule: Q04DX003 (ip), vehicle: saline
  T/C: 161 % of control
dose: 2.16 mg/kg/injection, schedule: Q01DX001 (ip), vehicle: saline
  T/C: 116 % of control
dose: 2.16 mg/kg/injection, schedule: Q01DX001 (sc), vehicle: saline
  T/C: 119 % of control
dose: 3.33 mg/kg/injection, schedule: Q04DX003 (ip), vehicle: saline
  T/C: 92 % of control
dose: 3.6 mg/kg/injection, schedule: Q01DX001 (ip), vehicle: saline
  T/C: 114 % of control
dose: 3.6 mg/kg/injection, schedule: Q01DX001 (sc), vehicle: saline
  T/C: 118 % of control
dose: 3.6 mg/kg/injection, schedule: Q04DX003 (ip), vehicle: saline
  T/C: 107 % of control
dose: 6.0 mg/kg/injection, schedule: Q01DX001 (ip), vehicle: saline
  T/C: 116 % of control
dose: 6.0 mg/kg/injection, schedule: Q01DX001 (sc), vehicle: saline
  T/C: 113 % of control
dose: 10.0 mg/kg/injection, schedule: Q01DX001 (sc), vehicle: saline
  T/C: 113 % of control
dose: 288.0 micrograms/kg/injection, schedule: Q01DX009 (ip), vehicle: saline
  T/C: 155 % of control and 170 % of control
dose: 467.0 micrograms/kg/injection, schedule: Q04DX003 (sc), vehicle: saline
  T/C: 116 % of control
dose: 480.0 micrograms/kg/injection, schedule: Q01DX009 (ip), vehicle: saline
  T/C: 177 % of control
dose: 778.0 micrograms/kg/injection, schedule: Q04DX003 (ip), vehicle: saline
  T/C: 119 % of control
dose: 778.0 micrograms/kg/injection, schedule: Q04DX003 (sc), vehicle: saline
  T/C: 123 % of control
dose: 800.0 micrograms/kg/injection, schedule: Q01DX009 (ip), vehicle: saline
  T/C: 109 % of control
dose: 3600.0 micrograms/kg/injection, schedule: Q04DX003 (ip), vehicle: saline
  T/C: 92 % of control

## NC1=NC(=O)NC1(c1ccccc1)c1ccccc1
[1]
  T/C: 107 % of control
[2]
  T/C: 91 % of control
[3]
  T/C: 90 % of control
dose: 400.0 mg/kg/injection, schedule: Q01DX009 (ip), vehicle: saline with Tween-80
  T/C: 94 % of control

## CC1=Nc2ccccc2NC(C)(C)C1
[4]
  T/C: 101 % of control
[5]
  T/C: 99 % of control
[6]
  T/C: 90 % of control

## CC(=O)OCC(C)OC(C)=O (stereo not given)
[7]
  T/C: 91 % of control
[4]
  T/C: 100 % of control
[8]
  T/C: 112 % of control
[5]
  T/C: 100 % of control
[6]
  T/C: 96 % of control

## CC(=O)Nc1ccc([I+]c2ccc([N+](=O)[O-])cc2)cc1
[9]
  T/C: 99 % of control
[10]
  T/C: 101 % of control
[11]
  T/C: 119 % of control
dose: 75.0 mg/kg/injection, schedule: Q01DX009 (ip), vehicle: saline with Tween-80
  T/C: 116 % of control
dose: 100.0 mg/kg/injection, schedule: Q01DX009 (ip), vehicle: Klucel (hydroxypropylcellulose) (HPC)
  T/C: 118 % of control
[2]
  T/C: 115 % of control

## [Na+]
dose: 3.0 mg/kg/injection, schedule: Q01DX009 (ip), vehicle: saline
  T/C: 104 % of control
dose: 6.0 mg/kg/injection, schedule: Q01DX009 (ip), vehicle: saline
  T/C: 95 % of control
dose: 12.0 mg/kg/injection, schedule: Q01DX009 (ip), vehicle: saline
  T/C: 104 % of control
dose: 12.5 mg/kg/injection, schedule: Q04DX003 (ip), vehicle: saline
  T/C: 109 % of control
[12]
  T/C: 95 % of control

## [O-][n+]1ccc(Cl)c2ccsc21
dose: 50.0 mg/kg/injection, schedule: Q04DX003 (ip), vehicle: saline with Tween-80
  T/C: 95 % of control
[13]
  T/C: 95 % of control
[14]
  T/C: 90 % of control and 104 % of control
[15]
  T/C: 86 % of control

## CC(N)c1ccccc1 (stereo not given) (tested in a mixture with another compound)
[16]
  T/C: 96 % of control
[7]
  T/C: 104 % of control
[8]
  T/C: 95 % of control

## C=C1C(=O)O[C@H]2[C@H]1[C@H](OC(=O)/C(C)=C\C)C[C@]1(CO1)[C@@H]1[C@H](OC(C)=O)C=C(C)[C@]21O
dose: 10.0 mg/kg/injection, schedule: Q01DX010 (ip), vehicle: steriod suspending solution
  T/C: 100 % of control
dose: 20.0 mg/kg/injection, schedule: Q01DX010 (ip), vehicle: steriod suspending solution
  T/C: 109 % of control
dose: 40.0 mg/kg/injection, schedule: Q01DX010 (ip), vehicle: steriod suspending solution
  T/C: 118 % of control

## CN=C1N[N+]2=C(C)CCCC2(C)S1 (stereo not given)
dose: 25.0 mg/kg/injection, schedule: Q01DX009 (ip), vehicle: saline
  T/C: 100 % of control
[16]
  T/C: 103 % of control
[7]
  T/C: 99 % of control

## COC(=O)c1cc(O)c(O)c(OC)c1
[11]
  T/C: 111 % of control
[1]
  T/C: 101 % of control
[2]
  T/C: 86 % of control
[3]
  T/C: 95 % of control

## CCN(CC)S(=O)(=O)c1ccc(C(=O)O)cc1
[17]
  T/C: 100 % of control
[18]
  T/C: 104 % of control
[19]
  T/C: 100 % of control

## COc1ccc(OCC(O)CN2CCN(c3ccc(Cl)cc3)CC2)cc1 (stereo not given)
dose: 6.25 mg/kg/injection, schedule: Q01DX009 (ip), vehicle: Klucel (hydroxypropylcellulose) (HPC)
  T/C: 100 % of control
[9]
  T/C: 95 % of control
[10]
  T/C: 86 % of control

## COc1ccc(C(Br)C(Br)C(=O)c2ccc3c(c2)OCO3)cc1OC (stereo not given)
[12]
  T/C: 104 % of control
dose: 50.0 mg/kg/injection, schedule: Q04DX003 (ip), vehicle: saline
  T/C: 90 % of control
[4]
  T/C: 113 % of control
[5]
  T/C: 97 % of control
[6]
  T/C: 90 % of control
dose: 600.0 mg/kg/injection, schedule: Q04DX003 (ip), vehicle: saline
  T/C: 119 % of control

## Nc1cc(Nc2cccc(Cl)c2)nc(N)n1
[1]
  T/C: 86 % of control

## Cc1cc(C(=O)N/N=C/c2ccccc2O)c2cc(Br)ccc2n1
dose: 0.78 mg/kg/injection, schedule: Q01DX009 (ip), vehicle: saline with Tween-80
  T/C: 95 % of control
dose: 1.56 mg/kg/injection, schedule: Q01DX009 (ip), vehicle: saline with Tween-80
  T/C: 95 % of control
dose: 3.12 mg/kg/injection, schedule: Q01DX009 (ip), vehicle: saline with Tween-80
  T/C: 97 % of control

## Cc1ncc([N+](=O)[O-])n1CCN/C=C/C#N
[13]
  T/C: 111 % of control
[14]
  T/C: 123 % of control
[15]
  T/C: 120 % of control

## O=C(O)CSC(=S)c1ccccc1
[11]
  T/C: 118 % of control
[2]
  T/C: 121 % of control

## O=S(=O)(O)CCO
[8]
  T/C: 92 % of control
dose: 400.0 mg/kg/injection, schedule: Q01DX009 (ip), vehicle: saline
  T/C: 100 % of control

## O=Cc1ccc(N(c2ccccc2)c2ccccc2)cc1
[17]
  T/C: 111 % of control
[18]
  T/C: 111 % of control
[19]
  T/C: 94 % of control

## CC(C)c1ccccc1OS(=O)(=O)c1ccc([N+](=O)[O-])cc1
[20]
  T/C: 90 % of control
[21]
  T/C: 95 % of control
dose: 400.0 mg/kg/injection, schedule: Q04DX003 (ip), vehicle: saline sonified
  T/C: 95 % of control

## Cc1cc2nc3c(nc2cc1C)-c1ccccc1C3=O
[13]
  T/C: 110 % of control
[14]
  T/C: 100 % of control
[15]
  T/C: 100 % of control

## CCCCOCCOc1ccc(C(=O)OC)cc1
dose: 50.0 mg/kg/injection, schedule: Q04DX003 (ip), vehicle: saline sonified
  T/C: 100 % of control
[20]
  T/C: 100 % of control
[21]
  T/C: 105 % of control

## Cc1ccc(N)c(Br)c1
[11]
  T/C: 100 % of control
[1]
  T/C: 109 % of control
[2]
  T/C: 118 % of control
